# Measurements published in patent US5110976A, “Insecticidal composition comprising more than one active ingredient” (priority 1985, dated 1992).
# Columns and labels:
# [1] = test system: Leptinotarsa decemlineata; experiment: Topical test on potato beetle (Table 6); assay type: in vivo, imagos; settings: 24 h
# Experimental: The active ingredients are dissolved in 2-ethoxyethanol and […] of the solutions are applied onto the abdominal sterna of potato beetle (Leptinotarsa decemlineata) imagos. The treatments are carried out by using two parallels and 10 insects for each dose. […]
# Acanthoscelides obtectus = experiment: 5 EC formulation, insecticidal effect on bean weevil (Table 10); assay type: in vivo, bean weevil (Acanthoscelides obtectus), imagos; settings: 24 hours
# Experimental: From a 5 EC formulation according to Example 17 50-, 100-, 200-, 400-, 800- and 1600-fold diluted emulsions are prepared by diluting with water. 0.5 ml of the emulsions are sprayed onto glass plates whereupon after drying 10 Colorado beetles (L. decemlineata) imagos are placed on each glass plate and the insects are covered. The tests are carried out with 6 doses by carrying out 3 parallels for each dose. The killed insects are counted after 48 hours and the percental mortality rate is calculated.
# The insecticidal effect is tested on been weevil (Acanthoscelides obtectus) imagos. The killed insects are counted after 24 hours and the percental mortality rate is calculated.
# Musca domestica = experiment: Topical LD50 (Table 3); assay type: in vivo, house fly (Musca domestica), 3-5 days' old females
# Experimental: In Table 3 the LD50 values of the Ig and Ii isomers and those of the Ib isomer-pair are disclosed. The data are topically measured.
# The active ingredients are dissolved in 2-ethoxyethanol (cellosolve) and 0.3 μl droplets of the solutions are applied onto the dorsal cuticulum of 3-5 days' old female house flies. 10 animals are used and 2 parallels are carried out for each dose. The tests are carried out for 5 dose levels between activity limits of 0% and 100%. After treatment the flies are placed into glass vials. Mortality is determined after 24 hours. Data are transformed to log10 dosage and probit mortality. LD50 and confidence interval values are calculated by linear regression analysis of the log-probit data. The expected values required for the calculation of synergism are obtained by means of harmonic average. The synergistic factor is the quotient of the expected and measured values.
# bees = experiment: Toxicity on bees; settings: in vivo
# Hyphantria cunea = experiment: Topical test on fall webworm (Table 8); assay type: in vivo, L7-L8 larvae; settings: 24 h
# Experimental: The active ingredients are dissolved in 2-ethoxyethanol and the solutions are applied in the form of 0.2 μl droplets onto the back of fall webworm (Hyphantria cunea) of L7 -L8 larvae stage. The treated worms are placed on strawberry leaves in Petri-dishes. The test is carried out by using 5 doses; 2 parallels and 10 insects for each dose.
compound,measurement,setting,value
CC1(C)[C@H](C=C(Cl)Cl)[C@H]1C(=O)O[C@H](C#N)c1cccc(Oc2ccccc2)c1 (relative stereo) [Ib],mortality at 0.05 µg/insect,[1]; 0.05 μg/insect,0%
same,mortality at 0.1 µg/insect,[1]; 0.10 μg/insect,25%
same,mortality at 0.2 µg/insect,[1]; 0.20 μg/insect,75%
same,mortality at 0.4 µg/insect,[1]; 0.40 μg/insect,85%
same,Mortality %,Acanthoscelides obtectus; dilution 50x,67%
same,Mortality %,Acanthoscelides obtectus; dilution 100x,53%
same,Mortality %,Acanthoscelides obtectus; dilution 200x,37%
same,Mortality %,Acanthoscelides obtectus; dilution 400x,20%
same,Mortality %,Acanthoscelides obtectus; dilution 800x,10%
same,Mortality %,Acanthoscelides obtectus; dilution 1600x,3%
same,LD50 expected,Musca domestica; harmonic average of the single isomers,24.5 ng/insect
same,synerg. factor,Musca domestica; quotient of expected and measured LD50,1.92
same,LD50 measured,"Musca domestica; topical, dorsal cuticulum, 24 hours",12.8 ng/insect
same,toxicity on bees,bees,very low toxicity on bees
same,mortality at 0.023 µg/larva,Hyphantria cunea; 0.023 μg/larvae,10%
same,mortality at 0.047 µg/larva,Hyphantria cunea; 0.047 μg/larvae,15%
same,mortality at 0.094 µg/larva,Hyphantria cunea; 0.094 μg/larvae,30%
same,mortality at 0.188 µg/larva,Hyphantria cunea; 0.188 μg/larvae,70%
same,mortality at 0.375 µg/larva,Hyphantria cunea; 0.375 μg/larvae,80%
